Reference: ChEMBL document CHEMBL5512691, “Synthetically Feasible De Novo Molecular Design of Leads Based on a Reinforcement Learning Model: AI-Assisted Discovery of an Anti-IBD Lead Targeting CXCR4” (J Med Chem, 2024)
Values belong to the molecule of their own block, whether it stands above or below them. Activity calls are given as the source filed them. The calls are words filed in the database; no cut-off is given here.

Columns and labels:
[1] = molecular target: T1, C-X-C chemokine receptor type 4 (Homo sapiens, UniProt P61073); assay: (§1) Competitive binding affinity to CXCR4 (unknown origin) assessed as inhibition of CXCR4 to TN14003 interaction at 10 nM preincubated for 10 mins followed by compound washout and subsequent TN14003 addition for 30 mins prior to incubation under dark condition for 30 mins by DAPI staining based laser scanning confocal microscopic analysis relative to control; set-up: scale not given: the % may be the effect or the level left
[2] = molecular target: T1, C-X-C chemokine receptor type 4; assay: as §1, with “interaction” for “interaction at 10 nM”, “analysis” for “analysis relative to control”
RAW264.7 [3] = assay: Inhibition of CXCL-12 induced chemotaxis in mouse RAW264.7 cells incubated for 22 hrs by transwell assay; format: functional
RAW264.7 [4] = assay: Inhibition of CXCL-12 induced chemotaxis in mouse RAW264.7 cells at 10 nM incubated for 22 hrs by crystal violet staining based transwell assay; format: functional, cell-based
Mus musculus [5] = assay: Anti-inflammatory activity in DSS induced C57BL/6 mouse model of colitis assessed as alleviation in body weight loss at 25 mg/kg, IG administered twice daily for 2 weeks; format: functional, organism-based
Mus musculus [6] = assay: Anti-inflammatory activity in DSS induced C57BL/6 mouse model of colitis assessed as reduction in DAI score at 25 mg/kg, IG administered twice daily for 2 weeks (reference value: 3); format: functional
Mus musculus [7] = assay: Anti-inflammatory activity in DSS induced C57BL/6 mouse model of colitis assessed as inhibition rate at 25 mg/kg, IG administered twice daily for 2 weeks; format: functional; set-up: scale not given: the % may be the effect or the level left
Mus musculus [8] = assay: Anti-inflammatory activity in DSS induced C57BL/6 mouse model of colitis assessed as alleviation in colon edema at 25 mg/kg, IG administered twice daily for 2 weeks; format: functional, organism-based
Mus musculus [9] = assay: Anti-inflammatory activity in DSS induced C57BL/6 mouse model of colitis assessed as increase in colon length at 25 mg/kg, IG administered twice daily for 2 weeks; format: functional, organism-based
Mus musculus [10] = assay: Anti-inflammatory activity in DSS induced C57BL/6 mouse model of colitis assessed as decrease in number of bleeding points at 25 mg/kg, IG administered twice daily for 2 weeks; format: functional, organism-based
Mus musculus [11] = assay: Anti-inflammatory activity in DSS induced C57BL/6 mouse model of colitis assessed as decrease in number of bleeding area at 25 mg/kg, IG administered twice daily for 2 weeks; format: functional, organism-based
Mus musculus [12] = assay: Anti-inflammatory activity in DSS induced C57BL/6 mouse model of colitis assessed as decrease in colon MPO level at 25 mg/kg, IG administered twice daily for 2 weeks by microplate reader assay; format: functional, organism-based
Mus musculus [13] = assay: Anti-inflammatory activity in DSS induced C57BL/6 mouse model of colitis assessed as decrease in IL-1beta expression at 25 mg/kg, IG administered twice daily for 2 weeks by bioluminescence microscopy; format: functional, organism-based
Mus musculus [14] = assay: Anti-inflammatory activity in DSS induced C57BL/6 mouse model of colitis assessed as decrease in IL-6 expression at 25 mg/kg, IG administered twice daily for 2 weeks by bioluminescence microscopy; format: functional, organism-based
Mus musculus [15] = assay: Anti-inflammatory activity in DSS induced C57BL/6 mouse model of colitis assessed as decrease in TNF-alpha expression at 25 mg/kg, IG administered twice daily for 2 weeks by bioluminescence microscopy; format: functional, organism-based
[16] = Half-life in Sprague-Dawley rat at 2 mg/kg, iv measured upto 12 hrs by LC-MS/MS analysis; format: ADME, organism-based; conditions: in vivo
[17] = Tmax in Sprague-Dawley rat at 2 mg/kg, iv measured upto 12 hrs by LC-MS/MS analysis; format: ADME, organism-based; conditions: in vivo
[18] = Cmax in Sprague-Dawley rat at 2 mg/kg, iv measured upto 12 hrs by LC-MS/MS analysis; format: ADME, organism-based; conditions: in vivo
[19] = AUC(0 to t) in Sprague-Dawley rat at 2 mg/kg, iv measured upto 12 hrs by LC-MS/MS analysis; format: ADME, organism-based; conditions: in vivo
[20] = AUC(0 to infinity) in Sprague-Dawley rat at 2 mg/kg, iv measured upto 12 hrs by LC-MS/MS analysis; format: ADME, organism-based; conditions: in vivo
[21] = Clearance in Sprague-Dawley rat at 2 mg/kg, iv measured upto 12 hrs by LC-MS/MS analysis; format: ADME, organism-based; conditions: in vivo
[22] = MRT in Sprague-Dawley rat at 2 mg/kg, iv measured upto 12 hrs by LC-MS/MS analysis; format: ADME, organism-based; conditions: in vivo
[23] = Bioavailability in Sprague-Dawley rat at 20 mg/kg, IG measured upto 12 hrs by LC-MS/MS analysis; format: ADME, organism-based; conditions: in vivo, po
[24] = Half-life in Sprague-Dawley rat at 20 mg/kg, IG measured upto 12 hrs by LC-MS/MS analysis; format: ADME, organism-based; conditions: in vivo, po
[25] = Tmax in Sprague-Dawley rat at 20 mg/kg, IG measured upto 12 hrs by LC-MS/MS analysis; format: ADME, organism-based; conditions: in vivo, po
[26] = Cmax in Sprague-Dawley rat at 20 mg/kg, IG measured upto 12 hrs by LC-MS/MS analysis; format: ADME, organism-based; conditions: in vivo, po
[27] = AUC(0 to t) in Sprague-Dawley rat at 20 mg/kg, IG measured upto 12 hrs by LC-MS/MS analysis; format: ADME, organism-based; conditions: in vivo, po
[28] = AUC(0 to infinity) in Sprague-Dawley rat at 20 mg/kg, IG measured upto 12 hrs by LC-MS/MS analysis; format: ADME, organism-based; conditions: in vivo, po
[29] = Clearance in Sprague-Dawley rat at 20 mg/kg, IG measured upto 12 hrs by LC-MS/MS analysis; format: ADME, organism-based; conditions: in vivo, po
[30] = MRT in Sprague-Dawley rat at 20 mg/kg, IG measured upto 12 hrs by LC-MS/MS analysis; format: ADME, organism-based; conditions: in vivo, po
Mus musculus [31] = assay: Anti-inflammatory activity in DSS induced C57BL/6 mouse model of colitis assessed as decrease in inflammatory track infiltration at 25 mg/kg, IG administered twice daily for 2 weeks by bioluminescence microscopy; format: functional, organism-based
Mus musculus [32] = assay: Anti-inflammatory activity in DSS induced C57BL/6 mouse model of colitis assessed as decrease in intestinal track inflammation at 25 mg/kg, IG administered twice daily for 2 weeks by bioluminescence microscopy; format: functional, organism-based
Mus musculus [33] = assay: Anti-inflammatory activity in DSS induced C57BL/6 mouse model of colitis assessed as decrease in thickness of colon mucosa at 25 mg/kg, IG administered twice daily for 2 weeks by bioluminescence microscopy; format: functional, organism-based
Mus musculus [34] = assay: Anti-inflammatory activity in DSS induced C57BL/6 mouse model of colitis assessed as decrease in inflammatory cell infiltration at 25 mg/kg, IG administered twice daily for 2 weeks by bioluminescence microscopy; format: functional, organism-based
Mus musculus [35] = assay: Anti-inflammatory activity in DSS induced C57BL/6 mouse model of colitis assessed as restoration of structural integrity of epithelium at 25 mg/kg, IG administered twice daily for 2 weeks by bioluminescence microscopy; format: functional, organism-based
Mus musculus [36] = assay: Anti-inflammatory activity in DSS induced C57BL/6 mouse model of colitis assessed as restoration of number of goblet cells at 25 mg/kg, IG administered twice daily for 2 weeks by bioluminescence microscopy; format: functional, organism-based
Mus musculus [37] = assay: Anti-inflammatory activity in DSS induced C57BL/6 mouse model of colitis assessed as restoration of integrity of glands at 25 mg/kg, IG administered twice daily for 2 weeks by bioluminescence microscopy; format: functional, organism-based
[38] = Stability in human plasma assessed as compound remaining measured upto 120 mins by LC-MS analysis; format: ADME, cell-free; conditions: read-out: Stability
[39] = Stability in human plasma assessed as half life measured upto 120 mins by LC-MS analysis; format: ADME, cell-free
[40] = Stability in human liver microsomes assessed as compound remaining measured upto 45 mins in presence of NADPH by LC-MS analysis; format: ADME, Microsome; conditions: read-out: Stability
[41] = Stability in human liver microsomes assessed as half life measured upto 45 mins in presence of NADPH by LC-MS analysis; format: ADME, Microsome
[42] = Volume of distribution in Sprague-Dawley rat at 2 mg/kg, IV measured upto 12 hrs by LC-MS/MS analysis; format: ADME, organism-based; conditions: in vivo
[43] = Volume of distribution in Sprague-Dawley rat at 20 mg/kg, IG measured upto 12 hrs by LC-MS/MS analysis; format: ADME, organism-based; conditions: in vivo, po

T1 sequence (P61073 whole entry): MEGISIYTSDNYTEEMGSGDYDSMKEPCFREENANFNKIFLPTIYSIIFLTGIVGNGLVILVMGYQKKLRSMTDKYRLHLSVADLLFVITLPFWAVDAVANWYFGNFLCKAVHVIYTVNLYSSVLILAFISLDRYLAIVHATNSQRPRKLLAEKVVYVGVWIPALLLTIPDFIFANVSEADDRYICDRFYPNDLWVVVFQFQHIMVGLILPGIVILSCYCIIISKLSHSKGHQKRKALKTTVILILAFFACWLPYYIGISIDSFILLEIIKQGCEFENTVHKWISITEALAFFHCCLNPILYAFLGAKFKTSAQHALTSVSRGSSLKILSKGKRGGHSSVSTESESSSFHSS

Structure (SMILES): Cc1ccc(C)c(CC(=O)N2CCN(c3ccccc3)CC2)c1
Activity [1]: 59.5%

Structure (SMILES): COc1ccc(C(=O)N[C@@H]2CCc3[nH]c4ccccc4c3C2)cc1
Activity [1]: 38.3%

Structure (SMILES): O=S(=O)(NCc1ccc(-c2ccccc2)cc1)c1cc(F)c(F)cc1F
Activity [1]: 54.9%

Structure (SMILES): c1cc(CN2CCCNCCNCCCNCC2)ccc1CN1CCCNCCNCCCNCC1 [PLERIXAFOR]
Activity [1]: 62.9%
Activity (Mus musculus [6]): 1.8
Activity (Mus musculus [7]): 40%
Activity (Mus musculus [13]): Active
Activity (Mus musculus [14]): Active
Activity (Mus musculus [15]): Active

Structure (SMILES): O=C(c1ccco1)N1CCN(C2CCN(c3ccccc3)CC2)CC1
Activity [1]: 78.9%
IC50 [2]: 3.2 nM
half-life [16]: 0.81 h
Tmax [17]: 4.8 min
Cmax [18]: 351 ng/mL
AUC(0-t) at 12 h [19]: 330 ng·h/mL
AUC(0-inf) [20]: 340 ng·h/mL
clearance [21]: 99.4 mL/min/kg
MRT [22]: 1.03 h
bioavailability [23]: 91.1%
half-life [24]: 1.71 h
Tmax [25]: 0.25 h
Cmax [26]: 1440 ng/mL
AUC(0-t) at 12 h [27]: 3010 ng·h/mL
AUC(0-inf) [28]: 3070 ng·h/mL
CL/F [29]: 109 mL/min/kg
MRT [30]: 2.62 h
inhibition (INH) (RAW264.7 [3]): 79.19%
inhibition (RAW264.7 [4]): Active
Activity (Mus musculus [5]): Active
Activity (Mus musculus [6]): 1.4
Activity (Mus musculus [7]): 53.3%
Activity (Mus musculus [8]): Active
Activity (Mus musculus [9]): Active
Activity (Mus musculus [10]): Active
Activity (Mus musculus [11]): Active
Activity (Mus musculus [12]): Active
Activity (Mus musculus [31]): Active
Activity (Mus musculus [32]): Active
Activity (Mus musculus [33]): Active
Activity (Mus musculus [34]): Active
Activity (Mus musculus [35]): Active
Activity (Mus musculus [36]): Active
Activity (Mus musculus [37]): Active
Activity (Mus musculus [13]): Active
Activity (Mus musculus [14]): Active
Activity (Mus musculus [15]): Active
remaining at 2 h [38]: 87%
half-life [39]: > 2 h
remaining at 0.75 h [40]: 62%
half-life [41]: 1.12 h
Vd [42]: 6.04 L/kg
Vd [43]: 16.16166 L/kg

Structure (SMILES): O=S(=O)(c1ccc(F)c(F)c1)N1CCN(c2ccc3ccccc3n2)CC1
Activity [1]: 64.8%

Structure (SMILES): Cc1c(C)c2ccc(OCc3ccc(F)c(F)c3)cc2oc1=O
Activity [1]: 51.9%

Structure (SMILES): CC1CN(C(=O)c2ccccc2C(=O)Nc2ccccc2)CCN1C(=O)c1ccc(F)c(F)c1 (configuration not stated)
Activity [1]: 62.7%

Structure (SMILES): Cc1cc(O)cc(C(=O)N2CCN(c3ccc(F)cc3)CC2)c1
Activity [1]: 64.3%

Structure (SMILES): O=C(c1cnc2ccccc2c1)N1CCC(N2CCOCC2)CC1
Activity [1]: 53.6%

Further lines, with some results ahead:

Activity [1]: 61.2%
Structure (SMILES): O=C(NC1CCN(Cc2ccccc2)CC1)c1ccc(Cl)cc1Cl

Activity [1]: 11.1%
Structure (SMILES): O=C(NCc1ccccc1-n1cccn1)c1cnc2ccccc2n1

Activity [1]: 67.1%
IC50 [2]: 5.7 nM
Structure (SMILES): O=C(NC1CCN(Cc2cccnc2)CC1)c1cnc2ccccc2c1
inhibition (INH) (RAW264.7 [3]): 75.63%
inhibition (RAW264.7 [4]): Active
Activity (Mus musculus [5]): Active
Activity (Mus musculus [6]): 2
Activity (Mus musculus [7]): 33.3%
Activity (Mus musculus [8]): Active
Activity (Mus musculus [9]): Active
Activity (Mus musculus [10]): Active
Activity (Mus musculus [11]): Active
Activity (Mus musculus [12]): Active
Activity (Mus musculus [13]): Active
Activity (Mus musculus [14]): Active
Activity (Mus musculus [15]): Active

Activity [1]: 33.7%
Structure (SMILES): Cc1cccc(NC(=O)N2CCN(c3nccc4ccccc34)CC2)c1

Activity [1]: 59.1%
Structure (SMILES): Cc1ccc(CN2CCN(c3nc(N)c4sccc4n3)CC2)cc1

Activity [1]: 55.4%
Structure (SMILES): O=C(NO)c1ccc(NC(=O)c2ccccc2C(F)(F)F)cc1

Activity [1]: 52.2%
Structure (SMILES): O=C(c1cnc2ccccc2c1)N1CCN(c2ccccc2F)CC1

Activity [1]: 64.5%
Structure (SMILES): O=C(c1cnc2ccccc2c1)N1CCC(N2CCCC2)CC1

Activity [1]: 58.6%
Structure (SMILES): Fc1ccc(F)c(NCCN2CCN(c3nccc4ccccc34)CC2)c1

Activity [1]: 40.2%
Structure (SMILES): O=C(c1cc2ccccc2[nH]1)N1CCN(c2ccc(Cl)cn2)CC1

Activity [1]: 59.2%
Structure (SMILES): CC(=O)N1CCC(N(Cc2cccc(C)c2O)C(=O)c2cccc3ccccc23)CC1
